Tested on: 935938-334-R-J1-PDC complex spheroid viability
Assay: Anticancer human tumor 935938-334-R-J1-PDC patient-derived small intestine adenocarcinoma cell line growth inhibition [POLQ]
Conditions: for IC50: curve of first compound; for viability, T/C: stronger effect = lower value
Outline: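 Patient-derived tumour cells were co-cultured with HUVEC and mesenchymal stem cells as multicellular spheroids at 37 °C. They were treated with POLQ inhibitors (novobiocin, ART-558, RP6685) alone or combined with other agents. Top concentrations were at or near clinical Cmax (otherwise 10 microM; SN-38 at 1 microM), decreasing in half-log steps.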
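Note: spheroids exposed to drugs for seven days before viability read.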
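Throughout, for viability, T/C: 100% = DMSO vehicle control wells.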

Work on `CC(=O)O[C@H]1C(=O)[C@@]2(C)[C@H]([C@H](OC(=O)c3ccccc3)[C@]3(O)C[C@H](OC(=O)[C@H](O)[C@@H](NC(=O)c4ccccc4)c4ccccc4)C(C)=C1C3(C)C)[C@]1(OC(C)=O)CO[C@@H]1C[C@@H]2O` + Cc1cccc(N(C)C(=O)C2C(O)CCN2c2nc(C)cc(C(F)(F)F)c2C#N)c1 yielded an IC50 (second compound 0.0316 µM) of less than 9.49 nM, an IC50 (second compound 0.1 µM) of less than 9.49 nM and an IC50 (second compound 0.316 µM) of less than 9.49 nM. For the same molecule, the IC50 (second compound 1 µM) was less than 9.49 nM, the IC50 (second compound 3.16 µM) was less than 9.49 nM and the IC50 (second compound 10 µM) was less than 9.49 nM. The viability, T/C (second compound 0.0316 µM, first compound 0.00949 µM) was 35.9%, the viability, T/C (second compound 0.0316 µM, first compound 0.03 µM) was 21.7% and the viability, T/C (second compound 0.0316 µM, first compound 0.0949 µM) was 16.1%. The viability, T/C (second compound 0.0316 µM, first compound 0.3 µM) was 15.5%, the viability, T/C (second compound 0.0316 µM, first compound 0.949 µM) was 19.6% and the viability, T/C (second compound 0.0316 µM, first compound 3 µM) was 18.6%. It also gave a viability, T/C (second compound 0.1 µM, first compound 0.00949 µM) of 38.3%, a viability, T/C (second compound 0.1 µM, first compound 0.03 µM) of 20.5% and a viability, T/C (second compound 0.1 µM, first compound 0.0949 µM) of 13.9%. It also gave a viability, T/C (second compound 0.1 µM, first compound 0.3 µM) of 13.2%, a viability, T/C (second compound 0.1 µM, first compound 0.949 µM) of 19.7% and a viability, T/C (second compound 0.1 µM, first compound 3 µM) of 15.4%. The viability, T/C (second compound 0.316 µM, first compound 0.00949 µM) was 35.3%, the viability, T/C (second compound 0.316 µM, first compound 0.03 µM) was 21.7% and the viability, T/C (second compound 0.316 µM, first compound 0.0949 µM) was 16.7%. For the same molecule, the viability, T/C (second compound 0.316 µM, first compound 0.3 µM) was 19%, the viability, T/C (second compound 0.316 µM, first compound 0.949 µM) was 21.5% and the viability, T/C (second compound 0.316 µM, first compound 3 µM) was 16%. It also gave a viability, T/C (second compound 1 µM, first compound 0.00949 µM) of 34.2%, a viability, T/C (second compound 1 µM, first compound 0.03 µM) of 19.4% and a viability, T/C (second compound 1 µM, first compound 0.0949 µM) of 15.6%. The viability, T/C (second compound 1 µM, first compound 0.3 µM) was 16.9%, the viability, T/C (second compound 1 µM, first compound 0.949 µM) was 18.6% and the viability, T/C (second compound 1 µM, first compound 3 µM) was 16%. It also gave a viability, T/C (second compound 3.16 µM, first compound 0.00949 µM) of 38.3%, a viability, T/C (second compound 3.16 µM, first compound 0.03 µM) of 17.8% and a viability, T/C (second compound 3.16 µM, first compound 0.0949 µM) of 15.4%. The viability, T/C (second compound 3.16 µM, first compound 0.3 µM) was 16%, the viability, T/C (second compound 3.16 µM, first compound 0.949 µM) was 19.2% and the viability, T/C (second compound 3.16 µM, first compound 3 µM) was 15.8%. For the same molecule, the viability, T/C (second compound 10 µM, first compound 0.00949 µM) was 31.6%, the viability, T/C (second compound 10 µM, first compound 0.03 µM) was 17.8% and the viability, T/C (second compound 10 µM, first compound 0.0949 µM) was 12.4%. The viability, T/C (second compound 10 µM, first compound 0.3 µM) was 14.9%, the viability, T/C (second compound 10 µM, first compound 0.949 µM) was 18.1% and the viability, T/C (second compound 10 µM, first compound 3 µM) was 14.4%.
`CC[C@@]1(O)C(=O)OCc2c1cc1n(c2=O)Cc2cc3c(CN(C)C)c(O)ccc3nc2-1` + Cc1cccc(N(C)C(=O)C2C(O)CCN2c2nc(C)cc(C(F)(F)F)c2C#N)c1 showed an IC50 (second compound 0.0316 µM) greater than 100 nM, an IC50 (second compound 0.1 µM) greater than 100 nM and an IC50 (second compound 0.316 µM) greater than 100 nM. It also gave an IC50 (second compound 1 µM) of 91.8 nM, an IC50 (second compound 3.16 µM) greater than 100 nM and an IC50 (second compound 10 µM) greater than 100 nM. For the same molecule, the viability, T/C (second compound 0.0316 µM, first compound 0.000316 µM) was 123%, the viability, T/C (second compound 0.0316 µM, first compound 0.001 µM) was 111% and the viability, T/C (second compound 0.0316 µM, first compound 0.00316 µM) was 95.1%. It also gave a viability, T/C (second compound 0.0316 µM, first compound 0.01 µM) of 90.4%, a viability, T/C (second compound 0.0316 µM, first compound 0.0316 µM) of 70.6% and a viability, T/C (second compound 0.0316 µM, first compound 0.1 µM) of 69.2%. For the same molecule, the viability, T/C (second compound 0.1 µM, first compound 0.000316 µM) was 105%, the viability, T/C (second compound 0.1 µM, first compound 0.001 µM) was 113% and the viability, T/C (second compound 0.1 µM, first compound 0.00316 µM) was 109%. For the same molecule, the viability, T/C (second compound 0.1 µM, first compound 0.01 µM) was 128%, the viability, T/C (second compound 0.1 µM, first compound 0.0316 µM) was 68.5% and the viability, T/C (second compound 0.1 µM, first compound 0.1 µM) was 82.7%. It also gave a viability, T/C (second compound 0.316 µM, first compound 0.000316 µM) of 112%, a viability, T/C (second compound 0.316 µM, first compound 0.001 µM) of 102% and a viability, T/C (second compound 0.316 µM, first compound 0.00316 µM) of 118%. The viability, T/C (second compound 0.316 µM, first compound 0.01 µM) was 88%, the viability, T/C (second compound 0.316 µM, first compound 0.0316 µM) was 89.9% and the viability, T/C (second compound 0.316 µM, first compound 0.1 µM) was 51.2%. The viability, T/C (second compound 1 µM, first compound 0.000316 µM) was 126%, the viability, T/C (second compound 1 µM, first compound 0.001 µM) was 115% and the viability, T/C (second compound 1 µM, first compound 0.00316 µM) was 92.9%. For the same molecule, the viability, T/C (second compound 1 µM, first compound 0.01 µM) was 111%, the viability, T/C (second compound 1 µM, first compound 0.0316 µM) was 79.9% and the viability, T/C (second compound 1 µM, first compound 0.1 µM) was 46.3%. It also gave a viability, T/C (second compound 3.16 µM, first compound 0.000316 µM) of 101%, a viability, T/C (second compound 3.16 µM, first compound 0.001 µM) of 92.9% and a viability, T/C (second compound 3.16 µM, first compound 0.00316 µM) of 112%. The viability, T/C (second compound 3.16 µM, first compound 0.01 µM) was 112%, the viability, T/C (second compound 3.16 µM, first compound 0.0316 µM) was 68.4% and the viability, T/C (second compound 3.16 µM, first compound 0.1 µM) was 54%. It also gave a viability, T/C (second compound 10 µM, first compound 0.000316 µM) of 97%, a viability, T/C (second compound 10 µM, first compound 0.001 µM) of 95.3% and a viability, T/C (second compound 10 µM, first compound 0.00316 µM) of 84.7%. The viability, T/C (second compound 10 µM, first compound 0.01 µM) was 84.5%, the viability, T/C (second compound 10 µM, first compound 0.0316 µM) was 101% and the viability, T/C (second compound 10 µM, first compound 0.1 µM) was 55.2%.
